The structures appear in SMILES notation.

The values below come from patent US4032573A, “Ortho-acylated anilide derivatives and salts thereof” (Sumitomo Chemical Company, Limited, priority 1976, dated 1977).

For one test, the system named is mice. Nature of the test: Anti-arrhythmic activity in mice (method of Lawson), intraperitoneal injection. In kind it is in vivo. The following applies: Mus musculus, ip. As for the experimental part:
2. Anti-arrhythmic activity
The anti-arrhythmic activity of each of the compounds was determined in accordance with the method of J. W. Lawson, Journal Pharmacol. Exp. Ther., 160, 22 (1967).

The subject of another test is guinea pigs. Put plainly: Local anesthetic activity in guinea pigs (method of Bulbring and Waida), intracutaneous injection. In kind it is in vivo. As for the experimental part: 1. Local anesthetic activity
The local anesthetic activity of each of the compounds was determined in accordance with the method of Bulbring E. and Waida, Journal Pharmacol. Exp. Ther., 85, 78 (1945).

Turning to `CCCC(=O)c1cccc(C)c1NC(=O)CCN(CC)CC`, in the test with mice, the ED50 (commonly the midpoint of the dose-response relation) is 25 mg/kg. In addition, in the test with guinea pigs, the “Local anesthetic activity in guinea pigs ED50 intracutaneous injection” value (shortened to “Local anesthetic activity”) is on record as 0.09 W/V %.

In the test on mice, `CCN(CC)CCC(=O)Nc1c(C)cccc1C(C)=O` yielded an ED50 of 50 mg/kg. Also, the “Local anesthetic activity” value in the test with guinea pigs stood at 0.33 W/V %.

In turn, `CCN(CC)CC(=O)Nc1cccc(C(C)=O)c1` gave an ED50 in the test on mice of 180 mg/kg. In the test on guinea pigs, the “Local anesthetic activity” value turned out to be 1.0 W/V %.

Molecule `CCN(CC)CC(=O)Nc1c(C)cccc1C(C)=O` yielded an ED50 with mice of 80 mg/kg. Further, in the test on guinea pigs, the “Local anesthetic activity” value came to 0.12 W/V %.

In turn, `CCN(CC)CCC(=O)Nc1cc(C(C)=O)ccc1C` returned an ED50 with mice of 97 mg/kg. Further, the “Local anesthetic activity” value in the test on guinea pigs is recorded as 1.48 W/V %.

On to `CCN(CC)CC(=O)Nc1ccc(C(C)=O)cc1`, for which the ED50 with mice came out at 250 mg/kg. The “Local anesthetic activity” value in the test with guinea pigs amounted to 1.0 W/V %.
